Results: article PMC4728427, “Mechanism of allosteric activation of TMEM16A/ANO1 channels by a commonly used chloride channel blocker” (British Journal of Pharmacology, 2016)

Molecular target: T1, Mouse TMEM16A (Mus musculus, UniProt Q8BHY3)
T1 construct: expressed in transfected cells; host or cells: HEK-293T
T1 sequence (Q8BHY3 1-960): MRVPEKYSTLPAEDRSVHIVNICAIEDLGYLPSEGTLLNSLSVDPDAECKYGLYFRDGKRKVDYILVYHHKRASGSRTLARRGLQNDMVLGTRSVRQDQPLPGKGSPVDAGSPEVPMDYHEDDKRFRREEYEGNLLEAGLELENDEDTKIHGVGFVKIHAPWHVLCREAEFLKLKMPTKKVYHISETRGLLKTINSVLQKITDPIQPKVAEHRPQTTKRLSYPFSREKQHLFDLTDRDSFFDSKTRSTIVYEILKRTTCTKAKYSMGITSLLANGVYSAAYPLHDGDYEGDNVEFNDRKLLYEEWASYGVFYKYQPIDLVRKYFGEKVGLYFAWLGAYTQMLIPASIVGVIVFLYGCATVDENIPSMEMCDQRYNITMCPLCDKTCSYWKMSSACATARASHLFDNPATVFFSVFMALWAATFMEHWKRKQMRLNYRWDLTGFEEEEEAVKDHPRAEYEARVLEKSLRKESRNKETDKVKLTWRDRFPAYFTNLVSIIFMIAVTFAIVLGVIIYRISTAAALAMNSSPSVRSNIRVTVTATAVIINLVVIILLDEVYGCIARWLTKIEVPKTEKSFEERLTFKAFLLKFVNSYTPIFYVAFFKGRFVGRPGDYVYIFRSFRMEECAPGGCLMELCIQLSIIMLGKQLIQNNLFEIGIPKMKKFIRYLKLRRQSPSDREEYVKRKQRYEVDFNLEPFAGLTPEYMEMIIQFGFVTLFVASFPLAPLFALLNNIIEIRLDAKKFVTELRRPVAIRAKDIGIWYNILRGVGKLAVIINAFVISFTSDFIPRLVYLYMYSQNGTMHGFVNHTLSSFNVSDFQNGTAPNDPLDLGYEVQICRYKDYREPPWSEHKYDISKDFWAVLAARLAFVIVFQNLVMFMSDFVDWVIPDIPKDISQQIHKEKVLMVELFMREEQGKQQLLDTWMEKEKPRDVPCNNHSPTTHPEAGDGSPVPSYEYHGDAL
Experiment: Concentration jump in excised inside-out or outside-out patches, 300 nM [Ca2+]i
Type: cell-based
Settings: +70 mV
Method: TMEM16A currents were measured with the whole‐cell or inside‐out patch configuration of the patch‐clamp technique as detailed in the Supporting Information. The exchange of solutions was achieved by using a local perfusion system consisting of eight tubes of 1.2 mm diameter in which the tip of the patch pipette was inserted. In some experiments, ultra‐rapid (<50 ms) changes in A9C concentration ([A9C]) (‘concentration jumps’) were achieved using a computer‐controlled perfusion system (Warner Instruments, Hamden, CT, USA).
To examine if intracellular A9C produced an activating effect on TMEM16A currents, concentration jump experiments were performed in the inside‐out configuration of the patch‐clamp technique, with A9C applied intracellularly and in the presence of 300 nM [Ca^2+]i. […] For example, I a/I 0 in the presence of 3000 μM intracellular A9C during inside‐out patches was 1.3 ± 0.1 (n = 5), while extracellular A9C produced a I a/I 0 of 27 ± 4 (n = 5) in outside‐out patches (Figure 6).

Question: O=C(O)c1c2ccccc2cc2ccccc12 [A9C, Anthracene‐9‐carboxylic acid] was tested. Which “I a/I 0 (current activation)” value (3000 μM extracellular A9C, outside-out patches) did it give?
Answer: Its value is 27 ± 4.

Question: What about the “I a/I 0 (current activation)” value (3000 μM intracellular A9C, inside-out patches) of the same compound?
Answer: The value was 1.3 ± 0.1.
